In ChEMBL document CHEMBL4507290 (2021):

Legend:
[1] = biological target: RAC-alpha serine/threonine-protein kinase (Homo sapiens) (UniProt P31749); details: Compound concentration 1000.0 nM
[2] = biological target: NUAK family SNF1-like kinase 1 (Homo sapiens) (UniProt O60285); details: Compound concentration 1000.0 nM
[3] = biological target: Aurora kinase A (Homo sapiens) (UniProt O14965); details: Compound concentration 1000.0 nM
[4] = biological target: Cyclin-dependent kinase 13 (Homo sapiens) (UniProt Q14004); details: Compound concentration 1000.0 nM
[5] = biological target: Cyclin-dependent kinase 9 (Homo sapiens) (UniProt P50750); details: Compound concentration 1000.0 nM
[6] = biological target: Serine/threonine-protein kinase Chk2 (Homo sapiens) (UniProt O96017); details: Compound concentration 1000.0 nM
[7] = biological target: Casein kinase I isoform alpha-like (Homo sapiens) (UniProt Q8N752); details: Compound concentration 1000.0 nM
[8] = biological target: Casein kinase I isoform epsilon (Homo sapiens) (UniProt P49674); details: Compound concentration 1000.0 nM
[9] = biological target: Serine/threonine-protein kinase DCLK1 (Homo sapiens) (UniProt O15075); details: Compound concentration 1000.0 nM
[10] = biological target: Dual specificity tyrosine-phosphorylation-regulated kinase 1B (Homo sapiens) (UniProt Q9Y463); details: Compound concentration 1000.0 nM
[11] = tested on: Epidermal growth factor receptor (Homo sapiens), P00533 [G719C]; details: Compound concentration 1000.0 nM
[12] = biological target: Eukaryotic translation initiation factor 2-alpha kinase 1 (Homo sapiens) (UniProt Q9BQI3); details: Compound concentration 1000.0 nM
[13] = tested on: Receptor-type tyrosine-protein kinase FLT3 (Homo sapiens), P36888 [K663Q]; details: Compound concentration 1000.0 nM
[14] = biological target: Mitogen-activated protein kinase kinase kinase kinase 1 (Homo sapiens) (UniProt Q92918); details: Compound concentration 1000.0 nM
[15] = tested on: Mast/stem cell growth factor receptor Kit (Homo sapiens), P10721 [D816V]; details: Compound concentration 1000.0 nM
[16] = tested on: Mast/stem cell growth factor receptor Kit (Homo sapiens), P10721 [L576P]; details: Compound concentration 1000.0 nM
[17] = tested on: Mast/stem cell growth factor receptor Kit (Homo sapiens), P10721 [V559D]; details: Compound concentration 1000.0 nM
[18] = tested on: Mast/stem cell growth factor receptor Kit (Homo sapiens), P10721 [V559D,V654A]; details: Compound concentration 1000.0 nM
[19] = biological target: Serine/threonine-protein kinase LATS2 (Homo sapiens) (UniProt Q9NRM7); details: Compound concentration 1000.0 nM
[20] = biological target: Tyrosine-protein kinase Lck (Homo sapiens) (UniProt P06239); details: Compound concentration 1000.0 nM
[21] = biological target: Leucine-rich repeat serine/threonine-protein kinase 2 (Homo sapiens) (UniProt Q5S007); details: Compound concentration 1000.0 nM
[22] = biological target: Mitogen-activated protein kinase kinase kinase 1 (Homo sapiens) (UniProt Q13233); details: Compound concentration 1000.0 nM
[23] = biological target: Dual specificity mitogen-activated protein kinase kinase 5 (Homo sapiens) (UniProt Q13163); details: Compound concentration 1000.0 nM
[24] = biological target: MAP kinase-interacting serine/threonine-protein kinase 1 (Homo sapiens) (UniProt Q9BUB5); details: Compound concentration 1000.0 nM
[25] = biological target: Serine/threonine-protein kinase MRCK alpha (Homo sapiens) (UniProt Q5VT25); details: Compound concentration 1000.0 nM
[26] = biological target: Serine/threonine-protein kinase MRCK beta (Homo sapiens) (UniProt Q9Y5S2); details: Compound concentration 1000.0 nM
[27] = biological target: Serine/threonine-protein kinase 26 (Homo sapiens) (UniProt Q9P289); details: Compound concentration 1000.0 nM
[28] = tested on: Phosphatidylinositol 4,5-bisphosphate 3-kinase catalytic subunit alpha isoform (Homo sapiens), P42336 [E542K]; details: Compound concentration 1000.0 nM
[29] = tested on: Phosphatidylinositol 4,5-bisphosphate 3-kinase catalytic subunit alpha isoform (Homo sapiens), P42336 [E545A]; details: Compound concentration 1000.0 nM
[30] = tested on: Phosphatidylinositol 4,5-bisphosphate 3-kinase catalytic subunit alpha isoform (Homo sapiens), P42336 [E545K]; details: Compound concentration 1000.0 nM
[31] = biological target: Serine/threonine-protein kinase D3 (Homo sapiens) (UniProt O94806); details: Compound concentration 1000.0 nM
[32] = biological target: Protein-tyrosine kinase 2-beta (Homo sapiens) (UniProt Q14289); details: Compound concentration 1000.0 nM
[33] = biological target: Ribosomal protein S6 kinase alpha-6 (Homo sapiens) (UniProt Q9UK32); details: Compound concentration 1000.0 nM
[34] = biological target: Serine/threonine-protein kinase TAO1 (Homo sapiens) (UniProt Q7L7X3); details: Compound concentration 1000.0 nM
[35] = biological target: TGF-beta receptor type-2 (Homo sapiens) (UniProt P37173); details: Compound concentration 1000.0 nM
[36] = biological target: Tyrosine-protein kinase receptor Tie-1 (Homo sapiens) (UniProt P35590); details: Compound concentration 1000.0 nM
[37] = biological target: High affinity nerve growth factor receptor (Homo sapiens) (UniProt P04629); details: Compound concentration 1000.0 nM
[38] = biological target: Non-receptor tyrosine-protein kinase TYK2 (Homo sapiens) (UniProt P29597); details: Compound concentration 1000.0 nM
[39] = biological target: Non-receptor tyrosine-protein kinase TYK2 (Homo sapiens) (UniProt P29597); details: Compound concentration 1000.0 nM; remark: listed apart in the source
[40] = biological target: Tyrosine-protein kinase receptor TYRO3 (Homo sapiens) (UniProt Q06418); details: Compound concentration 1000.0 nM
[41] = biological target: Serine/threonine-protein kinase WNK3 (Homo sapiens) (UniProt Q9BYP7); details: Compound concentration 1000.0 nM
[42] = biological target: Serine/threonine-protein kinase 32A (Homo sapiens) (UniProt Q8WU08); details: Compound concentration 1000.0 nM
[43] = biological target: Sodium-dependent noradrenaline transporter (Homo sapiens) (UniProt P23975); details: Compound concentration 10.0 uM
[44] = biological target: Muscarinic acetylcholine receptor M2 (Homo sapiens) (UniProt P08172); details: Compound concentration 10.0 uM

Chain of Non-receptor tyrosine-protein kinase TYK2 (Homo sapiens) (P29597 whole entry): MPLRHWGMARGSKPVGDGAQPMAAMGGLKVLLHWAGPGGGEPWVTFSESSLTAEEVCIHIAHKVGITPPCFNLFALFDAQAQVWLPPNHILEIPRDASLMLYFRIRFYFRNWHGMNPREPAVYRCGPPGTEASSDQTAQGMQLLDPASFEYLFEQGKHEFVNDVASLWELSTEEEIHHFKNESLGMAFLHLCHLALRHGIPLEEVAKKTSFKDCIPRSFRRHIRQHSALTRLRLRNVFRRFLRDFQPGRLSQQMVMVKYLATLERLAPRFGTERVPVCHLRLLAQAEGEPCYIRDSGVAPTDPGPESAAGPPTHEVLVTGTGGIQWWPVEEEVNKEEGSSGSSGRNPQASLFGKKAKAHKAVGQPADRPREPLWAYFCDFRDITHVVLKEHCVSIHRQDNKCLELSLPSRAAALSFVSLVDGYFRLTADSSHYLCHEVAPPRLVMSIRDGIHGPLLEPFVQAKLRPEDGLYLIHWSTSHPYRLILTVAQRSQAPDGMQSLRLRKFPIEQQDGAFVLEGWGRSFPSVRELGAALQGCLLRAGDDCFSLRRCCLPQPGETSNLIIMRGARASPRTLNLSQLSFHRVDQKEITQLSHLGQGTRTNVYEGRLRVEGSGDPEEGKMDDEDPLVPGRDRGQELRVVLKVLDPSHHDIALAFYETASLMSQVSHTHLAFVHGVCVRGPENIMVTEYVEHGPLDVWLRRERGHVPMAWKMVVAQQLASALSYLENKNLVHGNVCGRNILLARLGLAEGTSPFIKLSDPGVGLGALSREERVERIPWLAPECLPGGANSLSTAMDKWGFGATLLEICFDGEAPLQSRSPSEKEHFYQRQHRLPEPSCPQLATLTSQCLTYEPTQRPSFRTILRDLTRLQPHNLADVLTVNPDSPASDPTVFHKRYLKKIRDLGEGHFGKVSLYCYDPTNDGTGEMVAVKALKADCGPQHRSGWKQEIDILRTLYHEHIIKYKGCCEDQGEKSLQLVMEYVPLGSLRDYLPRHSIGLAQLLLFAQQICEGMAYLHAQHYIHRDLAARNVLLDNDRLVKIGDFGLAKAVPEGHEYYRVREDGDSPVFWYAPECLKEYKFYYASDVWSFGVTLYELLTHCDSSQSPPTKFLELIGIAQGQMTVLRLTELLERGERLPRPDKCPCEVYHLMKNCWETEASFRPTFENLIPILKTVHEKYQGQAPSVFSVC
Chain of High affinity nerve growth factor receptor (Homo sapiens) (P04629 33-796 limits assumed): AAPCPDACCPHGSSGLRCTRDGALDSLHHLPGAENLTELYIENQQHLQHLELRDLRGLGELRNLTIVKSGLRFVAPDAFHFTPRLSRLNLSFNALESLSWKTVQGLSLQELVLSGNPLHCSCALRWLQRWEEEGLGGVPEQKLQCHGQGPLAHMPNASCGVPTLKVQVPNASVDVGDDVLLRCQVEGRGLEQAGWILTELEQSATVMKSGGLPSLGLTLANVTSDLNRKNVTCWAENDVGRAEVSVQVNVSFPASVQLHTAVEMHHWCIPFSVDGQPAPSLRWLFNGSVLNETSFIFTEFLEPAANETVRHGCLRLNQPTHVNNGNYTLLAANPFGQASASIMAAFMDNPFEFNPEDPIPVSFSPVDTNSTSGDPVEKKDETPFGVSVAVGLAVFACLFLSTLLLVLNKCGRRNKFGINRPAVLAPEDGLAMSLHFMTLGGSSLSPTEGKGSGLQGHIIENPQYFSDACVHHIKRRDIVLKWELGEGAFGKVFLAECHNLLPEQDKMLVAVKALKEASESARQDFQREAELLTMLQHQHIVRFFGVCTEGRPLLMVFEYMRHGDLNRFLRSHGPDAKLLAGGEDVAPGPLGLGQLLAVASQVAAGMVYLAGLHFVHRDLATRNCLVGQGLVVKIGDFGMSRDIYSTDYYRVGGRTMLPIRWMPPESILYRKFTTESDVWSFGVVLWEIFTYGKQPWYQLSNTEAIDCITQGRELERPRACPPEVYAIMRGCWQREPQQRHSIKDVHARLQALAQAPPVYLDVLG
Chain of Serine/threonine-protein kinase LATS2 (Homo sapiens) (Q9NRM7 whole entry): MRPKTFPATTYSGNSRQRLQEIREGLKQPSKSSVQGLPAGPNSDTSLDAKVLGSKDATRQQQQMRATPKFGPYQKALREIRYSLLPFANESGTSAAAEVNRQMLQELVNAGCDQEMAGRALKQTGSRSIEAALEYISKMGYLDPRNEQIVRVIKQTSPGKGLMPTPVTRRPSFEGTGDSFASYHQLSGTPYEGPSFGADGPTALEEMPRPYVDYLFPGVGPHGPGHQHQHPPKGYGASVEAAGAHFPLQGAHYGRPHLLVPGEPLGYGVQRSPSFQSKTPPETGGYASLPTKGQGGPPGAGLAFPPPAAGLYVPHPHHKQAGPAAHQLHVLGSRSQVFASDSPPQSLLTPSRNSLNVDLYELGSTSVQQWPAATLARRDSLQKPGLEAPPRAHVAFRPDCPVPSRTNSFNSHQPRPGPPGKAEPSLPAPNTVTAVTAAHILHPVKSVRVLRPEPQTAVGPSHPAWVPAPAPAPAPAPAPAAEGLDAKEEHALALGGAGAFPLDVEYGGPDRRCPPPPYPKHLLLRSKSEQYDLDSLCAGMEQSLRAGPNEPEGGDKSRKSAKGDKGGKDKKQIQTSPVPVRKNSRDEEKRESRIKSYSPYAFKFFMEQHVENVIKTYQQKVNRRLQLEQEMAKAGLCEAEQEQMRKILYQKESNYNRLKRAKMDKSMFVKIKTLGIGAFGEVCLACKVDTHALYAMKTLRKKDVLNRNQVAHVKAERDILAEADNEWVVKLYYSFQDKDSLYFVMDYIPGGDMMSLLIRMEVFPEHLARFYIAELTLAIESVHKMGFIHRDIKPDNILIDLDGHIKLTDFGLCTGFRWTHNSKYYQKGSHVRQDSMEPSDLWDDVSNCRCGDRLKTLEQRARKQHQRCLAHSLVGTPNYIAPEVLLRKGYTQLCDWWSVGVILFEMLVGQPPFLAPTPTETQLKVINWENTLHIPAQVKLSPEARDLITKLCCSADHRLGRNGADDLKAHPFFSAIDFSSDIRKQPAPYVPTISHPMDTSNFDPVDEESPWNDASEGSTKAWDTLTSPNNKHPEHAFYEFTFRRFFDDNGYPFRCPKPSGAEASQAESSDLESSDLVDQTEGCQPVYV
Chain of Ribosomal protein S6 kinase alpha-6 (Homo sapiens) (Q9UK32 whole entry): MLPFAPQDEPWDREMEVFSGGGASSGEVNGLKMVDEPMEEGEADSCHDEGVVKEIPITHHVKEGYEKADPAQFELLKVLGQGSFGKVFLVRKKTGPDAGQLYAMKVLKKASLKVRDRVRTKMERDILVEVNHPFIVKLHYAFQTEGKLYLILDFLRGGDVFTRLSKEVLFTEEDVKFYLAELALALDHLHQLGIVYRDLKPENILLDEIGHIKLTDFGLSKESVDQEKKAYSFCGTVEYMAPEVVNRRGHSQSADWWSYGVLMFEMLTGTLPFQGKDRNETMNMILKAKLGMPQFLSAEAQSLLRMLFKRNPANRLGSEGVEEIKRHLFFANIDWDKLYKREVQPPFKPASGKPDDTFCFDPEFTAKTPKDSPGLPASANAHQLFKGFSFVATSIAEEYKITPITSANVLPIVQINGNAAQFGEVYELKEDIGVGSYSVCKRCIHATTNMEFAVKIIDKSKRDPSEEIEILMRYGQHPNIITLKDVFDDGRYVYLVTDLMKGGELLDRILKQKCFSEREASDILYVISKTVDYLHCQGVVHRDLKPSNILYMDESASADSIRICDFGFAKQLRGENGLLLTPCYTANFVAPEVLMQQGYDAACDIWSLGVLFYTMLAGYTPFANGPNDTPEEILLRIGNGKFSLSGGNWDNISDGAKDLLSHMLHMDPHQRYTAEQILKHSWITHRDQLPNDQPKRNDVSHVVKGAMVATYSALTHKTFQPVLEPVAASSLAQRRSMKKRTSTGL
Chain of Tyrosine-protein kinase receptor Tie-1 (Homo sapiens) (P35590 whole entry): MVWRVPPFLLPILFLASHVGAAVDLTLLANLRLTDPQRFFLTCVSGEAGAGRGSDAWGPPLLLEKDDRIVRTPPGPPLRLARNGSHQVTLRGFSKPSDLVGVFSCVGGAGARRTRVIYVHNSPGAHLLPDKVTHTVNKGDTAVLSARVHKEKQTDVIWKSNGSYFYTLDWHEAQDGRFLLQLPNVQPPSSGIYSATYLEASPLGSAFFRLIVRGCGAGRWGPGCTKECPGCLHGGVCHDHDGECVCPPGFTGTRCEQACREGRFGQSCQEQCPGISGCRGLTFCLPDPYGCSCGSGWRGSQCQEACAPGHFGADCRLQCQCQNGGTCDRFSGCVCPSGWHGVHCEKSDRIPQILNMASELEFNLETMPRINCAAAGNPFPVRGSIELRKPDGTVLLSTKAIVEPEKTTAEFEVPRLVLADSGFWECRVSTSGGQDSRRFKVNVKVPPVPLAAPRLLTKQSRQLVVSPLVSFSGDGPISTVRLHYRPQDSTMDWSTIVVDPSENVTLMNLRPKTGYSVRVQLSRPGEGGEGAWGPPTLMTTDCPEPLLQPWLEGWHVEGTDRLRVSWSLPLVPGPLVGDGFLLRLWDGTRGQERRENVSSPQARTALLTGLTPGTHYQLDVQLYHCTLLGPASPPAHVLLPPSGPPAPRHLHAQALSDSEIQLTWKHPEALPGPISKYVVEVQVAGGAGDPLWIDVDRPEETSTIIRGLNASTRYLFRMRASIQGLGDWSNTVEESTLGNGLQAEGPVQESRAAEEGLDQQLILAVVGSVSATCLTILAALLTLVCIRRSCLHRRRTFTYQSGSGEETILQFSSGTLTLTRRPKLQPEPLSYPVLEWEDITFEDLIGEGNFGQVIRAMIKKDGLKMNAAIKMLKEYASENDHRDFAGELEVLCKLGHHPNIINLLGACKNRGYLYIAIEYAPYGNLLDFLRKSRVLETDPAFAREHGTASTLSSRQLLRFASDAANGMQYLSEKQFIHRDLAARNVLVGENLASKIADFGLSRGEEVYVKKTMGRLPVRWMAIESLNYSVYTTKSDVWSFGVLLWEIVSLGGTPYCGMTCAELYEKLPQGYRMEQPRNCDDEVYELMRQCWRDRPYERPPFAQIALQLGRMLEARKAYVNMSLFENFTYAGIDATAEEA

CN([C@@H]1CCc2c(CC(=O)O)c3ccccc3n2C1)S(=O)(=O)c1ccc(F)cc1 [MK-7246]
inactive: residual activity [1] 100% | residual activity [2] 100% | residual activity [3] 100% | residual activity [4] 95% | residual activity [5] 100% | residual activity [6] 100% | residual activity [7] 100% | residual activity [8] 90% | residual activity [9] 82% | residual activity [11] 100% | residual activity [12] 98% | residual activity [13] 100% | residual activity [14] 100% | residual activity [15] 100% | residual activity [16] 100% | residual activity [17] 100% | residual activity [18] 100% | residual activity [19] 100% | residual activity [20] 100% | residual activity [21] 100% | residual activity [22] 62% | residual activity [23] 100% | residual activity [24] 93% | residual activity [25] 100% | residual activity [26] 100% | residual activity [27] 79% | residual activity [28] 86% | residual activity [29] 100% | residual activity [30] 86% | residual activity [31] 94% | residual activity [32] 100% | residual activity [33] 100% | residual activity [34] 93% | residual activity [35] 100% | residual activity [36] 89% | residual activity [37] 100% | residual activity [38] 100% | residual activity [39] 100% | residual activity [40] 72% | residual activity [41] 86% | residual activity [42] 100% | inhibition [43] 23.8% | inhibition [44] -0.4%
active: residual activity [10] 44%

CN([C@@H]1CCc2c(CC(=O)O)c3cc(S(C)(=O)=O)ccc3n2C1)S(=O)(=O)c1ccc(F)cc1
active: residual activity [10] 36%
inactive: residual activity [1] 100% | residual activity [2] 100% | residual activity [3] 100% | residual activity [4] 86% | residual activity [5] 100% | residual activity [6] 100% | residual activity [7] 94% | residual activity [8] 96% | residual activity [9] 79% | residual activity [11] 98% | residual activity [12] 90% | residual activity [13] 100% | residual activity [14] 100% | residual activity [15] 95% | residual activity [16] 89% | residual activity [17] 92% | residual activity [18] 100% | residual activity [19] 88% | residual activity [20] 100% | residual activity [21] 100% | residual activity [22] 66% | residual activity [23] 100% | residual activity [24] 86% | residual activity [25] 100% | residual activity [26] 100% | residual activity [27] 77% | residual activity [28] 88% | residual activity [29] 96% | residual activity [30] 84% | residual activity [31] 100% | residual activity [32] 100% | residual activity [33] 100% | residual activity [34] 95% | residual activity [35] 67% | residual activity [36] 95% | residual activity [37] 100% | residual activity [38] 100% | residual activity [39] 83% | residual activity [40] 91% | residual activity [41] 83% | residual activity [42] 100% | inhibition [43] 22.4% | inhibition [44] -9.24%
